Target: human orexin-2 receptor (Homo sapiens (Human), UniProt O43614)
Experiment: FLIPR Ca2+ Flux Assay, orexin-2 receptor
Format: cell-based
Conditions: CHO cells expressing the human orexin-2 receptor; agonist 70 pM Ala-6,12 human orexin-A; read-out: hOX2 FLIPR IC50
Protocol: In a typical experiment the OX1 and OX2 receptor antagonistic activity of the compounds of the present invention was determined in accordance with the following experimental method. For intracellular calcium measurements, Chinese hamster ovary (CHO) cells expressing the rat orexin-1 receptor or the human orexin-2 receptor, are grown in Iscove's modified DMEM containing 2 mM L-glutamine, […], 1% hypoxanthine-thymidine supplement, 100 U/ml penicillin, 100 μg/ml streptomycin and 10% heat-inactivated fetal calf serum (FCS). The cells are seeded at 20,000 cells/well into Becton-Dickinson black 384-well clear bottom sterile plates coated with poly-D-lysine. All reagents are from GIBCO-Invitrogen Corp. The seeded plates are incubated overnight at 37° C. and 5% CO2. Ala-6,12 human orexin-A as the agonist is prepared as a 1 mM stock solution in 1% bovine serum albumin (BSA) and diluted in assay buffer (HBSS containing 20 mM HEPES, 0.1% BSA and 2.5 mM probenecid, pH7.4) for use in the assay at a final concentration of 70 pM. Test compounds are prepared as 10 mM stock solution in DMSO, then diluted in 384-well plates, first in DMSO, then assay buffer. On the day of the assay, cells are washed 3 times with 100 μl assay buffer and then incubated for 60 min (37° C., 5% CO2) in 60 μl assay buffer containing 1 μM Fluo-4AM ester, 0.02% pluronic acid, and 1% BSA. The dye loading solution is then aspirated and cells are washed 3 times with 100 μl assay buffer. 30 μl of that same buffer is left in each well. Within the Fluorescent Imaging Plate Reader (FLIPR, Molecular Devices), test compounds are added to the plate in a volume of 25 μl, incubated for 5 min and finally 25 μl of agonist is added. Fluorescence is measured for each well at 1 second intervals for 5 minutes and the height of each fluorescence peak is compared to the height of the fluorescence peak induced by 70 pM Ala-6,12 orexin-A with buffer in place of antagonist. […] The intrinsic orexin receptor antagonist activity of a compound which may be used in the present invention may be determined by these assays.

Sequence of human orexin-2 receptor (O43614 whole entry): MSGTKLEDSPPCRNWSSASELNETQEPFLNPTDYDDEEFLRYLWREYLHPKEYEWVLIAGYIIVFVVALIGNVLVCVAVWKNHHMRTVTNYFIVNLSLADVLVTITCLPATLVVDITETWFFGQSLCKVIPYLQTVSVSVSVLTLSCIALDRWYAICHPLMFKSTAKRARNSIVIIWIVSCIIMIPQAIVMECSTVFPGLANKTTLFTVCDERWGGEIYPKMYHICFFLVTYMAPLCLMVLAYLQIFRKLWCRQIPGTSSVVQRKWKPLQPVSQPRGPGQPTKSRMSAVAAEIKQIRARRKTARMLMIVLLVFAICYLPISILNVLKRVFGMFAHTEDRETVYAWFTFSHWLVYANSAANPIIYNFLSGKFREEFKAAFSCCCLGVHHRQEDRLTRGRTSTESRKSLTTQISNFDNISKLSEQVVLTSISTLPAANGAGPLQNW

Row | Structure (SMILES) | IC50
1 | C[C@@H]1CC[C@@H](c2cc(C(C)(C)O)no2)CN1C(=O)c1nccnc1-c1ccccn1 [Example 28, 2-(5-{(3R,6R)-6-Methyl-1-[(3-pyridin-2-ylpyrazin-2-yl)carbonyl]piperidin-3-yl}isoxazol-3-yl)propan-2-ol] | 1420 nM
2 | C[C@@H]1CC[C@@H](c2cc(C(C)(C)O)no2)CN1C(=O)c1ccccc1-c1ccccc1 [Example 26, 2-{5-[(3R,6R)-1-(Biphenyl-2-ylcarbonyl)-6-methylpiperidin-3-yl]isoxazol-3-yl}propan-2-ol] | 22.9 nM
3 | CCC(C)(O)c1cc([C@@H]2CC[C@@H](C)N(C(=O)c3ccccc3-n3nccn3)C2)on1 (stereo partly drawn) [Example 55, 2-{5-[(3R,6R)-6-Methyl-1-{[2-(2H-1,2,3-triazol-2-yl)phenyl]carbonyl}piperidin-3-yl]isoxazol-3-yl}butan-2-ol] | 39.8 nM
4 | C[C@@H]1CC[C@@H](c2cc(C(C)(C)O)no2)CN1C(=O)c1ncccc1-c1ccccc1 [Example 34, 2-(5-{(3R,6R)-6-Methyl-1-[(3-phenylpyridin-2-yl)carbonyl]piperidin-3-yl}isoxazol-3-yl)propan-2-ol] | 264 nM
5 | C[C@@H]1CC[C@@H](c2cc(C(C)(O)C3CC3)on2)CN1C(=O)c1ccccc1-n1nccn1 (single isomer, unassigned) [Example 9] | 25.8 nM
6 | C[C@@H]1CC[C@@H](c2cc([C@H](O)C(F)(F)F)no2)CN1C(=O)c1ccsc1-n1nccn1 [Example 43, (1S)-2,2,2-trifluoro-1-{5-[(3R,6R)-6-methyl-1-{[2-(2H-1,2,3-triazol-2-yl)thiophen-3-yl]carbonyl}piperidin-3-yl]isoxazol-3-yl}ethanol] | 162 nM
7 | C[C@@H]1CC[C@@H](c2cc(C(C)(C)O)sn2)CN1C(=O)c1ccsc1-c1ncccn1 [Example 64, 2-(3-{(3R,6R)-6-Methyl-1-[(2-pyrimidin-2-ylthiophen-3-yl)carbonyl]piperidin-3-yl}isothiazol-5-yl)propan-2-ol] | 36.8 nM
8 | C[C@@H]1CC[C@@H](c2cc(C(C)(C)O)sn2)CN1C(=O)c1cscc1-c1ncccn1 [Example 65, 2-(3-{(3R,6R)-6-Methyl-1-[(4-pyrimidin-2-ylthiophen-3-yl)carbonyl]piperidin-3-yl}isothiazol-5-yl)propan-2-ol] | 46.8 nM
9 | C[C@@H]1CC[C@@H](c2cc(C(C)(C)O)no2)CN1C(=O)c1nccnc1-n1cccn1 [Example 25, 2-{5-[(3R,6R)-6-methyl-1-{[3-(1H-pyrazol-1-yl)pyrazin-2-yl]carbonyl}piperidin-3-yl]isoxazol-3-yl}propan-2-ol] | 799 nM
10 | C[C@@H]1CC[C@@H](c2cc(C(C)(C)O)on2)CN1C(=O)c1ccccc1-n1nccn1 [Example 1, 2-{3-[(3R,6R)-6-Methyl-1-{[2-(2H-1,2,3-triazol-2-yl)phenyl]carbonyl}piperidin-3-yl]isoxazol-5-yl}propan-2-ol] | 46.9 nM
11 | C[C@@H]1CC[C@@H](c2cc([C@](C)(O)C(F)F)on2)CN1C(=O)c1ccccc1-n1nccn1 [Example 18, (2S)-1,1-Difluoro-2-{3-[(3R,6R)-6-methyl-1-{[2-(2H-1,2,3-triazol-2-yl)phenyl]carbonyl}piperidin-3-yl]isoxazol-5-yl}propan-2-ol] | 92 nM
12 | C[C@@H]1CC[C@@H](c2cc(C(C)(O)C3CC3)on2)CN1C(=O)c1ccccc1-n1nccn1 (single isomer, unassigned) [Example 10] | 15.6 nM
13 | CC[C@](C)(O)c1cc([C@@H]2CC[C@@H](C)N(C(=O)c3ccccc3-n3nccn3)C2)no1 [Example 12, (2-(2H-1,2,3-triazol-2-yl)phenyl)((2R,5R)-5-(5-((S)-2-hydroxybutan-2-yl)isoxazol-3-yl)-2-methylpiperidin-1-yl)methanone] | 15 nM
14 | C[C@@H]1CC[C@@H](c2cc(C(C)(C)O)on2)CN1C(=O)c1cc(Cl)ccc1-n1nccn1 [Example 3, (5-Chloro-2-(2H-1,2,3-triazol-2-yl)phenyl)((2R,5R)-5-(5-(2-hydroxypropan-2-yl)isoxazol-3-yl)-2-methylpiperidin-1-yl)methanone] | 1430 nM
15 | C[C@@H]1CC[C@@H](c2cc([C@H](O)C(F)(F)F)no2)CN1C(=O)c1ccccc1-n1nccn1 [Example 41, (1S)-2,2,2-trifluoro-1-{5-[(3R,6R)-6-methyl-1-{[2-(2H-1,2,3-triazol-2-yl)phenyl]carbonyl}piperidin-3-yl]isoxazol-3-yl}ethanol] | 17.5 nM
16 | C[C@@H]1CC[C@@H](c2cc([C@@H](O)C(F)(F)F)no2)CN1C(=O)c1ccsc1-n1nccn1 [Example 42, (1R)-2,2,2-Trifluoro-1-{5-[(3R,6R)-6-methyl-1-{[2-(2H-1,2,3-triazol-2-yl)thiophen-3-yl]carbonyl}piperidin-3-yl]isoxazol-3-yl}ethanol] | 154 nM
17 | CC[C@@H]1CC[C@@H](c2cc(C(C)(C)O)no2)CN1C(=O)c1ccccc1-n1nccn1 [Example 39, 2-{5-[(3R,6R)-6-Ethyl-1-{[2-(2H-1,2,3-triazol-2-yl)phenyl]carbonyl}piperidin-3-yl]isoxazol-3-yl}propan-2-ol] | 42.4 nM
18 | COC(=O)c1ccccc1C(=O)N1C[C@H](c2cc(C(C)(C)O)no2)CC[C@H]1C [Example 30, Methyl 2-({(2R,5R)-5-[3-(1-hydroxy-1-methylethyl)isoxazol-5-yl]-2-methylpiperidin-1-yl}carbonyl)benzoate] | 251 nM
19 | C[C@@H]1CC[C@@H](c2cc([C@@H](O)C(F)(F)F)no2)CN1C(=O)c1ccccc1-c1ncccn1 [Example 50, (1R)-2,2,2-Trifluoro-1-(5-{(3R,6R)-6-methyl-1-[(2-pyrimidin-2-ylphenyl)carbonyl]piperidin-3-yl}isoxazol-3-yl)ethanol] | 110 nM
20 | C[C@@H]1CC[C@@H](c2cc([C@@H](O)C(F)(F)F)no2)CN1C(=O)c1ccccc1-n1ncnn1 [Example 46, (1R)-2,2,2-Trifluoro-1-{5-[(3R,6R)-6-methyl-1-{[2-(2H-tetrazol-2-yl)phenyl]carbonyl}piperidin-3-yl]isoxazol-3-yl}ethanol] | 356 nM
21 | CCC(O)(CC)c1cc([C@@H]2CC[C@@H](C)N(C(=O)c3ccccc3-n3nccn3)C2)no1 [Example 8, (2-(2H-1,2,3-triazol-2-yl)phenyl)((2R,5R)-5-(5-(3-hydroxypentan-3-yl)isoxazol-3-yl)-2-methylpiperidin-1-yl)methanone] | 552 nM
22 | C[C@@H]1CC[C@@H](c2cc(C(C)(C)O)no2)CN1C(=O)c1ccccc1OCC(F)F [Example 35, 2-{5-[(3R,6R)-1-{[2-(2,2-Difluoroethoxy)phenyl]carbonyl}-6-methylpiperidin-3-yl]isoxazol-3-yl}propan-2-ol] | 140 nM
23 | C[C@@H]1CC[C@@H](c2cc([C@@H](O)C(F)(F)F)no2)CN1C(=O)c1ccsc1-c1ncccn1 [Example 49, (1R)-2,2,2-Trifluoro-1-(5-{(3R,6R)-6-methyl-1-[(2-pyrimidin-2-ylthiophen-3-yl)carbonyl]piperidin-3-yl}isoxazol-3-yl)ethanol] | 112 nM
24 | C[C@@H]1CC[C@@H](c2cc(C(C)(C)O)no2)CN1C(=O)c1cc(F)ccc1-n1nccn1 [Example 24, 2-{5-[(3R,6R)-1-{[5-Fluoro-2-(2H-1,2,3-triazol-2-yl)phenyl]carbonyl}-6-methylpiperidin-3-yl]isoxazol-3-yl}propan-2-ol] | 215 nM
25 | C[C@@H]1CC[C@@H](c2cc(C(C)(C)O)on2)CN1C(=O)c1cc(F)ccc1-n1nccn1 [Example 4, (5-Fluoro-2-(2H-1,2,3-triazol-2-yl)phenyl)((2R,5R)-5-(5-(2-hydroxypropan-2-yl)isoxazol-3-yl)-2-methylpiperidin-1-yl)methanone] | 278 nM
26 | C[C@@H]1CC[C@@H](c2cc(C(C)(C)O)no2)CN1C(=O)c1ccccc1C1CC1(F)F (stereo partly drawn) [Example 38, 2-{5-[(3R,6R)-1-{[2-(2,2-Difluorocyclopropyl)phenyl]carbonyl}-6-methylpiperidin-3-yl]isoxazol-3-yl}propan-2-ol] | 52.4 nM
27 | COC(C)(C)c1cc([C@@H]2CC[C@@H](C)N(C(=O)c3ccccc3-n3nccn3)C2)no1 [Example 19, (2R,5R)-5-[5-(1-methoxy-1-methylethyl)isoxazol-3-yl]-2-methyl-1-{[2-(2H-1,2,3-triazol-2-yl)phenyl]carbonyl}piperidine] | 27.3 nM
28 | C[C@@H]1CC[C@@H](c2cc(C(C)(C)O)no2)CN1C(=O)c1ccccc1OCC(F)(F)F [Example 36, 2-{5-[(3R,6R)-6-Methyl-1-{[2-(2,2,2-trifluoroethoxy)phenyl]carbonyl}piperidin-3-yl]isoxazol-3-yl}propan-2-ol] | 212 nM
29 | COC(C)(C)c1cc([C@@H]2CC[C@@H](C)N(C(=O)c3ccccc3-n3nccn3)C2)on1 [Example 57, (2R,5R)-5-[3-(1-Methoxy-1-methylethyl)isoxazol-5-yl]-2-methyl-1-{[2-(2H-1,2,3-triazol-2-yl)phenyl]carbonyl}piperidine] | 14.4 nM

— patent publication US10017504B2, “Piperidine isoxazole and isothiazole orexin receptor antagonists” (MERCK SHARP & DOHME CORP., priority 2014, dated 2018)
